Reference: paper PMC9181188 (International Journal of Molecular Sciences, 2022)
Values after ≈ are worked out from the molar mass of the structure shown. Where two headings read alike, the source gives them in different places.

How the values were obtained:
SW480 cells = test: MTT assay, SW480; assay type: cell-based, human; settings: for IC50: Homo sapiens, SW480, 72 h, human primary colon cancer, 72 h, MTT, mean ± SD; for SI SW480: SI = IC50 for normal cell line (HaCaT)/IC50 cancer cell line
SW620 cells = test: MTT assay, SW620; assay type: cell-based, human; settings: for IC50: human metastatic colon cancer, 72 h, MTT, mean ± SD; for SI SW620: SI = IC50 for normal cell line (HaCaT)/IC50 cancer cell line
PC3 cells = test: MTT assay, PC3; assay type: cell-based, human; settings: for IC50: human metastatic prostate cancer, 72 h, MTT, mean ± SD; for SI PC3: SI = IC50 for normal cell line (HaCaT)/IC50 cancer cell line
HaCaT cells = test: MTT assay, HaCaT normal cells; assay type: cell-based; settings: human immortal keratinocyte cell line, 72 h, mean ± SD
S. aureus NCTC 4163 = test: MIC, twofold microdilution, standard strain; assay type: cell-based; settings: Staphylococcus aureus, NCTC4163; 18 h of treatment; read-out: MIC S. aureus NCTC 4163
S. aureus ATCC 25923 = test: MIC, twofold microdilution, standard strain; assay type: cell-based; settings: Staphylococcus aureus, ATCC25923; 18 h of treatment; read-out: MIC S. aureus ATCC 25923
S. aureus ATCC 6538 = test: MIC, twofold microdilution, standard strain; assay type: cell-based; settings: Staphylococcus aureus, ATCC6538; 18 h of treatment; read-out: MIC S. aureus ATCC 6538
S. aureus ATCC 29213 = test: MIC, twofold microdilution, standard strain; assay type: cell-based; settings: Staphylococcus aureus, ATCC29213; 18 h of treatment; read-out: MIC S. aureus ATCC 29213
[1] = tested on: S. epidermidis ATCC 12228; test: MIC, twofold microdilution, standard strain; assay type: cell-based; settings: Staphylococcus epidermidis, ATCC12228; 18 h of treatment; read-out: MIC S. epidermidis ATCC 12228
[2] = tested on: S. epidermidis ATCC 35984; test: MIC, twofold microdilution, standard strain; assay type: cell-based; settings: Staphylococcus epidermidis, ATCC35984; 18 h of treatment; read-out: MIC S. epidermidis ATCC 35984
E. coli ATCC 25922 = test: MIC, twofold microdilution, standard strain; assay type: cell-based, Escherichia coli; settings: 18 h of treatment; for MIC: Escherichia coli, ATCC25922, read-out: MIC E. coli ATCC 25922
P. aeruginosa ATCC 27853 = test: MIC, twofold microdilution, standard strain; assay type: cell-based; settings: Pseudomonas aeruginosa, ATCC27853; 18 h of treatment; read-out: MIC P. aeruginosa ATCC 27853
[3] = tested on: S. epidermidis KR 4047 825/19; test: MIC, clinical S. epidermidis strain; assay type: cell-based; settings: Staphylococcus epidermidis, KR4047825/19, quinolone-resistant, 18 h of treatment
[4] = tested on: S. epidermidis KR 4243 829/19; test: MIC, clinical S. epidermidis strain; assay type: cell-based; settings: Staphylococcus epidermidis, KR4243829/19, quinolone-susceptible, 18 h of treatment
[5] = tested on: S. epidermidis KR 4313 834/19; test: MIC, clinical S. epidermidis strain; assay type: cell-based; settings: Staphylococcus epidermidis, KR4313834/19, quinolone-susceptible, 18 h of treatment
[6] = tested on: S. epidermidis KR 4358/2 840/19; test: MIC, clinical S. epidermidis strain; assay type: cell-based; settings: Staphylococcus epidermidis, KR4358/2840/19; clinical S. epidermidis, quinolone-susceptible, 18 h of treatment; read-out: MIC KR 4358/2 840/19
[7] = tested on: S. epidermidis T 5253 845/19; test: MIC, clinical S. epidermidis strain; assay type: cell-based; settings: Staphylococcus epidermidis, T5253845/19, quinolone-resistant, 18 h of treatment
[8] = tested on: S. epidermidis T 5399 848/19; test: MIC, clinical S. epidermidis strain; assay type: cell-based; settings: Staphylococcus epidermidis, T5399848/19, quinolone-susceptible, 18 h of treatment
[9] = tested on: S. epidermidis T 5501 851/19; test: MIC, clinical S. epidermidis strain; assay type: cell-based; settings: Staphylococcus epidermidis, T5501851/19, read-out: MIC T 5501 851/19, quinolone-susceptible, 18 h of treatment
M. tuberculosis H37Rv = test: MABA (microplate Alamar blue assay) MIC; assay type: cell-based; settings: Mycobacterium tuberculosis, 336 h, read-out: MIC M. tuberculosis H37Rv
[10] = tested on: M. tuberculosis Spec. 192 (Sensitive to Tuberculostatics); test: MABA (microplate Alamar blue assay) MIC; assay type: cell-based; settings: Mycobacterium tuberculosis, 336 h, read-out: MIC M. tuberculosis Spec. 192 (Sensitive to Tuberculostatics)
[11] = tested on: standard staphylococci (S. aureus, S. epidermidis); test: MIC, standard Gram-positive strains as a group; assay type: cell-based; settings: Staphylococcus aureus; range over standard Gram-positive strains; read-out: MIC against standard staphylococci
[12] = tested on: quinolone-susceptible clinical coagulase-negative staphylococci; test: MIC, quinolone-susceptible clinical isolates as a group; assay type: cell-based; settings: Staphylococcus epidermidis, five quinolone-susceptible isolates, read-out: MIC against quinolone-susceptible clinical isolates
[13] = target: T1, S. aureus topoisomerase IV (Staphylococcus aureus, UniProt P0C1S7+P0C1U9); test: S. aureus topoisomerase IV decatenation assay; assay type: biochemical
T1 construct: purchased Inspiralis
Protocol: The assay was performed using S. aureus topoisomerase IV […] kit (Inspiralis). Kinetoplast DNA (kDNA) was the substrate for topoisomerase IV.

M. tuberculosis strains = test: MABA MIC, mycobacterial strains as a group; assay type: cell-based; settings: Mycobacterium tuberculosis, read-out: MIC antimycobacterial (strain not specified)
S. aureus DNA gyrase = S. aureus DNA gyrase (Staphylococcus aureus, UniProt P0A0K8+P20831); test: biochemical
[14] = tested on: SW480, SW620, and PC3 cancer cell lines; test: MTT assay, cancer cell lines as a group; assay type: cell-based, human; settings: 72 h, all three cancer cell lines (SW480, SW620, PC3), read-out: IC50 against all tested cancer cell lines

Sequence of S. aureus DNA gyrase (P20831 whole entry): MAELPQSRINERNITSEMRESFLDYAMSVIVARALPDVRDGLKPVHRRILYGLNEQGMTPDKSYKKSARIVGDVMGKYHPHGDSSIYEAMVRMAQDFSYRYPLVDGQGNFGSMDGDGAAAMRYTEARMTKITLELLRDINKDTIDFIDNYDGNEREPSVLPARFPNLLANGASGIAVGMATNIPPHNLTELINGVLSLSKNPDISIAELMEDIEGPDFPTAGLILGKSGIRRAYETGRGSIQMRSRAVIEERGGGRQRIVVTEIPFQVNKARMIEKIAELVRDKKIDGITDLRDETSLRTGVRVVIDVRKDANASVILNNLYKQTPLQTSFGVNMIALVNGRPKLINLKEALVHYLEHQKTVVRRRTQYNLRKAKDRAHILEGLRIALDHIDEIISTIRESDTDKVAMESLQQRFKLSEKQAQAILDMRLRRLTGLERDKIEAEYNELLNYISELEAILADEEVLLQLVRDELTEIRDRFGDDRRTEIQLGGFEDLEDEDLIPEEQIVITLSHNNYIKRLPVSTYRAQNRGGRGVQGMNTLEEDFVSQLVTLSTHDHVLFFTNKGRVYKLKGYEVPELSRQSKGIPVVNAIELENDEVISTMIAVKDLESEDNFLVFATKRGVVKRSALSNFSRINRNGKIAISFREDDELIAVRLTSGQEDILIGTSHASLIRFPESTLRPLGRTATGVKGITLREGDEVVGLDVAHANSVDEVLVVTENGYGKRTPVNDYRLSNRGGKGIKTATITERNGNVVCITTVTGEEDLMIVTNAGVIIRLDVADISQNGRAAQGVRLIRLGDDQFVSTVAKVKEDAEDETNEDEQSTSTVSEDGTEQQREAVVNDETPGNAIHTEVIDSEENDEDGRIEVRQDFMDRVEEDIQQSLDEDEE
Sequence of S. aureus DNA gyrase (P0A0K8 whole entry): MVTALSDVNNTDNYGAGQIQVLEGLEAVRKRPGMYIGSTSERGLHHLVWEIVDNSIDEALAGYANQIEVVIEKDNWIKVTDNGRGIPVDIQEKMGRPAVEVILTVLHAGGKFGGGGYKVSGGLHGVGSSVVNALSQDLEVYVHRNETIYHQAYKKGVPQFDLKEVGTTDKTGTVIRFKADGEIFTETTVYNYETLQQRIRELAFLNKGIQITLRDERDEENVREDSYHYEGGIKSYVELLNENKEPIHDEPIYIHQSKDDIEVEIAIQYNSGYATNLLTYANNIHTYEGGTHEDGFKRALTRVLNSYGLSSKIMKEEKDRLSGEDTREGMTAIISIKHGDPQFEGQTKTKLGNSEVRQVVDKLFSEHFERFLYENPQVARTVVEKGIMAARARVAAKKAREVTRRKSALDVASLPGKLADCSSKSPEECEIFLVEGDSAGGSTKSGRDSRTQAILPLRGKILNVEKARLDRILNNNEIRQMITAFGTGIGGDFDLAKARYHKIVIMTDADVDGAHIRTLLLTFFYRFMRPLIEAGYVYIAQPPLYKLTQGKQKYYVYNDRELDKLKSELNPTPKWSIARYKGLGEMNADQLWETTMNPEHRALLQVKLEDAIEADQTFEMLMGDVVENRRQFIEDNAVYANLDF
T1 sequence (P0C1U9 whole entry): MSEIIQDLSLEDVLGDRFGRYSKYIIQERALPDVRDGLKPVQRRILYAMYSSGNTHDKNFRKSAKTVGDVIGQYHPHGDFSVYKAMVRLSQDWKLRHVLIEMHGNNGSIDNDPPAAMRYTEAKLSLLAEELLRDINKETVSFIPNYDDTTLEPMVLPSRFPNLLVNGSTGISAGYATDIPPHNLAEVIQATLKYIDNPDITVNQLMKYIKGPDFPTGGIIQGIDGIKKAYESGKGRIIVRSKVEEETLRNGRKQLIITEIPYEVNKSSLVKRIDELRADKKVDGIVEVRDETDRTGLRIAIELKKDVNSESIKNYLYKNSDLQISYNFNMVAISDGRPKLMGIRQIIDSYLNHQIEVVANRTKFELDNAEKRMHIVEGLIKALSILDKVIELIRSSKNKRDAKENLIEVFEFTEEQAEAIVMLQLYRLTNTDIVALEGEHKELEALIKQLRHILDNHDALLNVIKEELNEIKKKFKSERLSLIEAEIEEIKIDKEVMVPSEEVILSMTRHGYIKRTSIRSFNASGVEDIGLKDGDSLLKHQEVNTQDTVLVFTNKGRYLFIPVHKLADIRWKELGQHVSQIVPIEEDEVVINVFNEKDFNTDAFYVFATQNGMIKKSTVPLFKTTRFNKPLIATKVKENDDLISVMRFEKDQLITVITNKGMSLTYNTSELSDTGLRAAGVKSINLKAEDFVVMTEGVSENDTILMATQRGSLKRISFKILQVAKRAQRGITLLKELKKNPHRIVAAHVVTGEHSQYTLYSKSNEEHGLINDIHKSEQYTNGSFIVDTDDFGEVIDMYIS
T1 sequence (P0C1S7 whole entry): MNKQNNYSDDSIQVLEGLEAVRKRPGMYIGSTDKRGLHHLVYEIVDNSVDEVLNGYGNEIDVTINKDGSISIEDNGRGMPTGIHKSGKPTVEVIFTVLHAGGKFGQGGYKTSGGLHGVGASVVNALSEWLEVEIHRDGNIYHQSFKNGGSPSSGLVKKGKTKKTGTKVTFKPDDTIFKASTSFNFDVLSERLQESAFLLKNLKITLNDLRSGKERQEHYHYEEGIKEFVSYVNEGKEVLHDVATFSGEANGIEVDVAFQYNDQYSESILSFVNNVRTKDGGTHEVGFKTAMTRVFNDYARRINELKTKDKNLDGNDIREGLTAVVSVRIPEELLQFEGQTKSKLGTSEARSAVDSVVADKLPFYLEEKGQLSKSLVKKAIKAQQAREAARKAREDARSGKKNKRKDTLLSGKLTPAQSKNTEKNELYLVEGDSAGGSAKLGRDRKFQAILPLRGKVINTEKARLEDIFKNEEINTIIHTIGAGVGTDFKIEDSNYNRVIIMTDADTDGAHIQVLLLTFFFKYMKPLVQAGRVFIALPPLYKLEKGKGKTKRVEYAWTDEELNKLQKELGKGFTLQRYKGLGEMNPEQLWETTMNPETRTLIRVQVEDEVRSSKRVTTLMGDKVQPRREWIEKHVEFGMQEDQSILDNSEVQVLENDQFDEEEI

| SMILES | IC50 (SW480 cells) [µM] | SI SW480 (SW480 cells) | IC50 (SW620 cells; Homo sapiens, SW-620, 72 h) [µM] | SI SW620 (SW620 cells) | IC50 (PC3 cells; Homo sapiens, PC-3, 72 h) [µM] | SI PC3 (PC3 cells) | IC50 (HaCaT cells) [µM] | MIC (S. aureus NCTC 4163) [µg/mL] | MIC (S. aureus ATCC 25923) [µg/mL] | MIC (S. aureus ATCC 6538) [µg/mL] | MIC (S. aureus ATCC 29213) [µg/mL] | MIC [1] [µg/mL] | MIC [2] [µg/mL] | MIC (E. coli ATCC 25922) [µg/mL] | MIC (P. aeruginosa ATCC 27853) [µg/mL] | MIC [3] [µg/mL] | MIC [4] [µg/mL] | MIC [5] [µg/mL] | MIC [6] [µg/mL] | MIC [7] [µg/mL] | also measured |
| --- | --- | --- | --- | --- | --- | --- | --- | --- | --- | --- | --- | --- | --- | --- | --- | --- | --- | --- | --- | --- | --- |
| C=CCCCCC(=O)N1CCCC2CN(c3c(F)cc4c(=O)c(C(=O)O)cn(C5CC5)c4c3OC)CC21 (stereo not shown) [Compound 10m, 1-Cyclopropyl-6-fluoro-7-(1-hept-6-enoyl-octahydro-pyrrolo[3,4-b]pyridin-6-yl)-8-methoxy-4-oxo-1,4-dihydro-quinoline-3-carboxylic acid] | 5.8 ± 0.8 | 15.1 | 6.2 ± 1.1 | 14.1 | < 5 | 19.0 | 87.6 ± 4.5 | 2 (≈ 3.91 µM) | 2 (≈ 3.91 µM) | 2 (≈ 3.91 µM) | 2 (≈ 3.91 µM) | 4 (≈ 7.82 µM) | 2 (≈ 3.91 µM) | 32 (≈ 62.5 µM) | > 512 | 16 (≈ 31.3 µM) | 2 (≈ 3.91 µM) | 2 (≈ 3.91 µM) | 4 (≈ 7.82 µM) | 16 (≈ 31.3 µM) | IC50 (PC3 cells): 4.6 ± 1.1 µM; MIC [8]: 2 µg/mL (≈ 3.91 µM); MIC [9]: 4 µg/mL (≈ 7.82 µM); MIC (M. tuberculosis H37Rv; 2 weeks of treatment): 32 µg/mL (≈ 62.5 µM); MIC ([10]; 2 weeks of treatment): 32 µg/mL (≈ 62.5 µM); MIC [11]: 2 to 4 µg/mL (≈ 3.91 to 7.82 µM); MIC [12]: 2 to 8 µg/mL (≈ 3.91 to 15.6 µM) |
| C/C=C/C(=O)N1CCCC2CN(c3c(F)cc4c(=O)c(C(=O)O)cn(C5CC5)c4c3OC)CC21 (stereo not shown) [Compound 1m, 7-{1-(E)-But-2-enoyl-octahydro-pyrrolo[3,4-b]pyridin-6-yl}-1-cyclopropyl-6-fluoro-8-methoxy-4-oxo-1,4-dihydro-quinoline-3-carboxylic acid] | 31.6 ± 4.7 | 2.0 | 24.8 ± 3.2 | 2.6 | 23.8 ± 3.4 | 2.7 | 64.1 ± 2.3 | 0.5 (≈ 1.06 µM) | 0.5 (≈ 1.06 µM) | 0.5 (≈ 1.06 µM) | 0.5 (≈ 1.06 µM) | 1 (≈ 2.13 µM) | 0.5 (≈ 1.06 µM) | 16 (≈ 34.1 µM) | > 512 | 32 (≈ 68.2 µM) | 0.5 (≈ 1.06 µM) | 1 (≈ 2.13 µM) | 1 (≈ 2.13 µM) | 64 (≈ 136 µM) | MIC E. coli ATCC 25922 (E. coli ATCC 25922): 2 to 16 µg/mL; MIC [8]: 1 µg/mL (≈ 2.13 µM); MIC [9]: 1 µg/mL (≈ 2.13 µM); MIC (M. tuberculosis H37Rv): 64 µg/mL (≈ 136 µM); MIC [10]: 64 µg/mL (≈ 136 µM); IC50 [13]: 130 µM; MIC [11]: 0.5 to 2 µg/mL (≈ 1.06 to 4.26 µM); MIC ([12]; 18 h): 0.5 to 1 µg/mL (≈ 1.06 to 2.13 µM); MIC (M. tuberculosis strains): 64 µg/mL (≈ 136 µM); IC50 (S. aureus DNA gyrase): > 136 µM |
| C/C=C/C=C/C(=O)N1CCCC2CN(c3c(F)cc4c(=O)c(C(=O)O)cn(C5CC5)c4c3OC)CC21 (stereo not shown) [Compound 2m, 1-Cyclopropyl-6-fluoro-7-{1-(2E,4E)-hexa-2,4-dienoyl-octahydro-pyrrolo[3,4-b]pyridin-6-yl}-8-methoxy-4-oxo-1,4-dihydro-quinoline-3-carboxylic acid] | 6.3 ± 1.2 | 15.7 | < 5 | 25.4 | < 5 | 36.7 | 99.1 ± 1.8 | 1 (≈ 2.02 µM) | 1 (≈ 2.02 µM) | 1 (≈ 2.02 µM) | 1 (≈ 2.02 µM) | 2 (≈ 4.04 µM) | 1 (≈ 2.02 µM) | 64 (≈ 129 µM) | > 512 | 32 (≈ 64.6 µM) | 1 (≈ 2.02 µM) | 1 (≈ 2.02 µM) | 1 (≈ 2.02 µM) | 32 (≈ 64.6 µM) | IC50 (SW620 cells): 3.9 ± 1.1 µM; IC50 (PC3 cells): 2.7 ± 1.1 µM; MIC [8]: 0.5 µg/mL (≈ 1.01 µM); MIC [9]: 2 µg/mL (≈ 4.04 µM); MIC (M. tuberculosis H37Rv; 2 weeks of treatment): 32 µg/mL (≈ 64.6 µM); MIC ([10]; 2 weeks of treatment): 32 µg/mL (≈ 64.6 µM); IC50 [13]: > 129 µM; MIC [11]: 0.5 to 2 µg/mL (≈ 1.01 to 4.04 µM); MIC ([12]; 18 h): 0.5 to 1 µg/mL (≈ 1.01 to 2.02 µM); IC50 (S. aureus DNA gyrase): > 129 µM |
| CC/C=C\C/C=C\C/C=C\C/C=C\C/C=C\C/C=C\CCC(=O)N1CCCC2CN(c3c(F)cc4c(=O)c(C(=O)O)cn(C5CC5)c4c3OC)CC21 (stereo not shown) [Compound 8m, 1-Cyclopropyl-7-{1-(4Z,7Z,10Z,13Z,16Z,19Z)-docosa-4,7,10,13,16,19-hexaenoyl-octahydro-pyrrolo[3,4-b]pyridin-6-yl}-6-fluoro-8-methoxy-4-oxo-1,4-dihydro-quinoline-3-carboxylic acid] | 6.2 ± 1.3 | 13.1 | 9.4 ± 3.7 | 8.7 | 5.6 ± 1.9 | 14.5 | 81.4 ± 3.2 | 2 (≈ 2.81 µM) | 2 (≈ 2.81 µM) | 2 (≈ 2.81 µM) | 4 (≈ 5.62 µM) | 4 (≈ 5.62 µM) | 2 (≈ 2.81 µM) | 2 (≈ 2.81 µM) | > 512 | 512 (≈ 719 µM) | 4 (≈ 5.62 µM) | 4 (≈ 5.62 µM) | 4 (≈ 5.62 µM) | 512 (≈ 719 µM) | MIC E. coli ATCC 25922 (E. coli ATCC 25922): 2 to 16 µg/mL; MIC [8]: 4 µg/mL (≈ 5.62 µM); MIC [9]: 4 µg/mL (≈ 5.62 µM); MIC (M. tuberculosis H37Rv; 2 weeks of treatment): 8 µg/mL (≈ 11.2 µM); MIC ([10]; 2 weeks of treatment): 4 µg/mL (≈ 5.62 µM); IC50 [13]: > 89.9 µM; IC50 ([14]; Homo sapiens): 5 to 10 µM; IC50 [14]: 5.6 to 10.4 µM; MIC [11]: 2 to 4 µg/mL (≈ 2.81 to 5.62 µM); MIC [12]: 4 µg/mL (≈ 5.62 µM); IC50 (S. aureus DNA gyrase): > 89.9 µM |
